Data as given in patent publication US20240300987A1, “TRAP1 INHIBITOR AND USE THEREOF” (SMARTIN BIO INC., priority 2021, published 2024).
“Also recorded” adds a separate entry of the source.

Assays:
TRAP1 [1] = molecular target: T1, TRAP1 (Homo sapiens, UniProt Q12931); assay: Protein expression analysis by western blot in 22Rv1 cells, TRAP1 inhibition markers; type: cell-based; set-up: endogenous in cells; host or cells: 22Rv1; details: 5 µM of each compound, 2 hours
T1 sequence (Q12931 60-704): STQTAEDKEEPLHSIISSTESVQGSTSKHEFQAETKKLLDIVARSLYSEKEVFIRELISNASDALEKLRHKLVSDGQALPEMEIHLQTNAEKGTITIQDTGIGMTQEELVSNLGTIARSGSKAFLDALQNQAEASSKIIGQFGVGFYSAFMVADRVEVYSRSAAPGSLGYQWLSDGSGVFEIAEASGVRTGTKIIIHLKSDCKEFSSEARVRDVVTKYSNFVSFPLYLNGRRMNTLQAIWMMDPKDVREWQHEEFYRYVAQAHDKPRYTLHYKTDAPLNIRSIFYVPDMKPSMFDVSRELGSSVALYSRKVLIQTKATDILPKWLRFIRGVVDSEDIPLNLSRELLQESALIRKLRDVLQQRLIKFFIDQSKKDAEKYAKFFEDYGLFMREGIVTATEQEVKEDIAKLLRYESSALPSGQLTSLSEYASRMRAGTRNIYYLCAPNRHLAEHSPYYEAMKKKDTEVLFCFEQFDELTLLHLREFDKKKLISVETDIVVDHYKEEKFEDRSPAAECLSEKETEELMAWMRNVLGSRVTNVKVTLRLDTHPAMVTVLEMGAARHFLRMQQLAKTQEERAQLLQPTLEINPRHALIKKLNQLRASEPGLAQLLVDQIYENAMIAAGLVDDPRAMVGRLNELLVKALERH
Procedure: Human cancer cell line 22Rv1 was purchased from the American Type Culture Collection (ATCC) and maintained as recommended by the supplier. Briefly, cancer cells were incubated in a DMEM or RPMI medium (GIBCO) containing 10% fetal bovine serum (FBS; ATCC) and 1% penicillin/streptomycin (GIBCO) at 37° C. in a humidified atmosphere of 5% CO2. The cells were not incubated for more than 6 months.
The 22Rv1 cells were treated with 5 µM of each compound, cultured for 2 hours, and then analyzed by western blot.
Cell lysates were separated by SDS-PAGE and transferred to a PVDF membrane. The membrane was blocked with 10% skim milk in TBST (TBS containing 0.05% Tween-20) for 1 hour at room temperature and incubated with primary antibodies overnight at 4° C. The membrane was washed with TBST three times for 1 hour and incubated with secondary antibodies (1:5000) diluted in 10% skim milk in TBST for 1 hour. The membrane was washed with TBST three times and visualized using an enhanced chemiluminescence detection kit (BioRad).

HIF1α = assay: Drug activity assay using MIO-M1 HRE/GFP cell line under hypoxia; type: cell-based; details: for IC50: MIO-M1, 24 h, HIF1α inhibitory activity in MIO-M1 cells, 1% O2 24 hours; for Activity compared to that of SMX: HIF1α inhibition, relative to SMX of the same table
Procedure: After transfection (jetPRIME kit) of MIO-M1 Müller cells with 5HRE/GFP plasmid (Addgene, #46926), the cells transfected with the plasmid were selected using 1 mg/ml of G418 (Neomycin), a selectable marker. A stable cell line was constructed by selecting cells, growing in a colony form, from single cells. The prepared MIO-M1-HRE/GFP stable cell line was dispensed into a 96-well plate and treated with drugs at different concentrations the next day. After being exposed to a hypoxic environment (1% O2) for 24 hours, the GFP (Ex/Em: 488/507) fluorescence signal was measured using a SYNERGY NEO microplate reader (BioTek Instrument). The relative fluorescence value was calculated on the basis of 100% of the negative control group.

[2] = molecular target: T2, human full-length TRAP1 protein (Homo sapiens, UniProt Q12931); assay: Fluorescence polarization (FP) analysis using SB-TM2 probe (client-binding site); details: for IC50: FP analysis using SB-TM2; for Activity compared to that of SMX: TRAP1 binding, relative to SMX of the same table; for binding capacity compared to that of SMX (MitoQ): result in words
T2 construct: containing human full-length TRAP1 protein (400 nM); hexahistidine tag followed by TEV protease cleavage site (N, cleaved yes); made in house; host or cells: E. coli BL21 (DE3)
T2 sequence (Q12931 60-704): T1 sequence (Q12931 60-704)
Procedure: The substance to be analyzed (at a final volume of 100 μL) was added to FP buffer ([…], 2.7 mM KCl, 4.3 mM Na2HPO4, 1.4 mM KH2PO4 (pH 7.3), 1 mM DTT, 2 mM MgCl2, and 0.1 mg/mL BSA) containing human full-length TRAP1 protein (400 nM) and SB-TM2 probe (100 nM) and then reacted at room temperature for 1 hour (96-well plate). Using a SYNERGY NEO microplate reader, FP was measured at an excitation wavelength set to 440 nm and an emission wavelength set to 500 nm.

22Rv1 cells = assay: In vivo mouse xenograft; set-up: species or system mice; details: 3 mg/Kg intraperitoneally daily
Procedure: Immunodeficient athymic nude mice (male, 8 weeks old) were purchased from OrientBio. The mice were maintained in a pathogen-free facility (12-hour dark/light cycle) at the UNIST In Vivo Research Center and supplied with standard diet and water. All animal experiments were approved by UNIST ([…]-19-11). 22Rv1 cells (1×10^7) were injected subcutaneously into both sides of the nude mice. When the tumor size reached approximately 100 mm^3, 3 mg/Kg drugs (MitoQ, SB-U014, and SB-U015) and vehicle (DMSO) dissolved in 20% cremophor EL (Sigma) in PBS were administered intraperitoneally daily. The tumor volume was measured daily using an electronic caliper and calculated using the following equation: V=½× (width) 2× length. When the experiment was completed, animals were euthanized, and the tumor was collected for histology and western blot. Band intensities were quantified using ImageJ software (National Institute of Health, USA). In this case, western blot was performed in the same manner as described above.

TRAP1 [3] = molecular target: T1, TRAP1; assay: ATPase activity assay (PiColorLock Gold Phosphate Detection Kit); type: biochemical; set-up: hexahistidine tag followed by TEV protease cleavage site (N, cleaved yes); made in house; host or cells: E. coli BL21 (DE3); details: result in words
Procedure: The ATPase activity of TRAP1 was measured using the PiColorLock Gold Phosphate Detection Kit (Abcam). Then, 0.5 µM TRAP1 (wild-type or mutation) was pre-incubated along with inhibitors at various concentrations for 30 minutes and then incubated with 0.2 mM ATP at 37° C. for 3 hours in ATPase activity assay buffer containing 50 mM Tris-HCl, 20 mM KCl, and 6 mM MgCl (pH 7.4). Next, 20 µL of a mixture of a PiColorLock Gold reagent and an accelerator (100:1) was added to each sample (100 μL). After 5 minutes of incubation, 10 μL of a stabilizer was added to stop color development. Absorbance was measured at 620 nm using a microplate reader (Synergy NEO, BioTek). The background signal was normalized by subtracting the absorbance of unreacted samples.

OIR mice = assay: Oxygen-induced retinopathy (OIR) model, CD31 whole-mount staining of retina; type: in vivo; details: intravitreal injection at P12 or eye drop administration P12 to P17
Excerpt: As TRAP1+/+(wild-type), TRAP1+/−(hetero), and TRAP1−/− (knockout) experimental mice, Black6 J strain mice were used. On the 7th day after birth, a baby mouse and a mother mouse were placed in an in vivo chamber (Coy-lab) and supplied with high oxygen (75% O2). On the 12th day after birth, the baby mouse was taken out of the in vivo chamber. Then, a surrogate mother was put thereinto, and normal oxygen (21% O2) was supplied. Then, the eyeball of the baby mouse was removed on the 17th day after birth and used for experiments.
In the process of forming the in vivo oxygen-induced retinopathy (OIR) model, the baby mouse was treated with eye drops for 6 days, from the day when being taken out to normal oxygen after being supplied with high oxygen until the day their eyes were collected (on the 12th day to 17th day after birth). Treatment was performed three times a day at intervals of 4 hours. As a drug treatment method, Mito Q was diluted to a concentration of 1 mM in Liposic and dropped 10 uL into the eyes of the baby mouse. Then, the eyes were allowed to blink for 1 minute. After wiping the residual amount outside the eyeball with a cotton swab, the mouse was returned to the care of the mother mouse. […]

[4] = 22Rv1 xenograft in nude mice, compared to DMSO

| SDHB and SIRT3 expression (TRAP1 inhibition) (TRAP1 [1]) | IC50 (HIF1α; Table 6, alkyl-TPPs) | IC50 ([2]; Table 1, alkyl-TPPs) | Activity compared to that of SMX ([2]; Table 1) | Structure (SMILES) | Activity compared to that of SMX (HIF1α; Table 6) | binding capacity compared to that of SMX (MitoQ) [2] | further results |
| --- | --- | --- | --- | --- | --- | --- | --- |
| strong effects | 30 ± 26 nM | 309 ± 26 nM | 2.01 | CCCCCCCCCCCCCCCC[P+](c1ccccc1)(c1ccccc1)c1ccccc1 [TPP-16, Hexadecyltriphenylphosphonium] | 15.59 | superior to that of SMX; also recorded: twice as strong as that of SMX | binding capacity compared to that of SMX (MitoQ) ([2]; listed as hexadecyl-TPP): superior to that of SMX; also recorded: twice as strong as that of SMX |
|  |  |  |  | COc1cc(C)c(CCCCCCCCCC[P+](c2ccccc2)(c2ccccc2)c2ccccc2)cc1OC [SB-U015, (10-(4,5-Dimethoxy-2-methylphenyl)decyl)triphenylphosphonium] |  |  | tumor size (22Rv1 cells; [4]): the tumor size became smaller; tumor weight (22Rv1 cells; [4]): the tumor weight decreased; Akt, Cdk4, and Hsp70 in tumors (western blot) (22Rv1 cells; 22Rv1 xenograft tumors): without causing changes in Akt, Cdk4, and Hsp70; SDHB, SIRT3, p-AMPK and CHOP in tumors (western blot) (22Rv1 cells; 22Rv1 xenograft tumors): decreases in SDHB and SIRT3, activated AMPK (p-AMPK), and induced the mitochondrial unfolded protein response (CHOP); TRAP1 ATPase activity with increasing concentration (TRAP1 [3]): did not show a tendency that the ATPase activity decreased in a concentration-dependent manner; IC50 (HIF1α; Table 9, other synthetic compounds): 88.7 ± 5.8 nM; Activity compared to that of SMX (HIF1α; Table 9): 3.14; IC50 ([2]; Table 4, other synthetic compounds): 1830 ± 285 nM; Activity compared to that of SMX ([2]; Table 4): 0.22 |
| strong effects | 34 ± 39.2 nM | 384 ± 39.2 nM | 1.62 | CCCCCCCCCCCCCC[P+](c1ccccc1)(c1ccccc1)c1ccccc1 [TPP-14, Tetradecyltriphenylphosphonium] | 13.76 | superior to that of SMX |  |
|  |  |  |  | COC1=C(OC)C(=O)C(C[P+](c2ccccc2)(c2ccccc2)c2ccccc2)=C(C)C1=O [MitoQ^S, ((4,5-Dimethoxy-2-methyl-3,6-dioxocyclohexa-1,4-dien-1-yl)methyl)triphenylphosphonium] |  |  | avascular and neovascular areas in the retina of the OIR model (OIR mice): both avascular and neovascular areas are significantly reduced; also recorded: significantly reduces both avascular and neovascular areas |
